No end group written: not given here. FLAG = FLAG epitope tag (3XFLAG, N-terminal)
Experiments:
[1] = tested on: Rpn13 Cys88; conditions: ref [22]; cited from earlier work
Source text: (§1) hRpn13 functions in ovarian and colorectal cancer proliferation, and its knockdown triggers apoptosis in these and other cancer cell lines.

[2] = tested on: Rpn13 interdomain interactions; conditions: ref [22]; cited from earlier work
Source text: as §1

[3] = tested on: multiple myeloma and ovarian cancer xenografts; conditions: ref [22]; cited from earlier work
Source text: as §1

[4] = tested on: ubiquitin-mediated protein degradation; conditions: ref [22]; cited from earlier work
Source text: as §1

[5] = tested on: endogenous hRpn13; assay: anti-FLAG immunoprecipitation, immunoprobed for endogenous hRpn13; type: cell-based, human; conditions: 293T cells transfected with p3XFLAG-CMV7.1 plasmid; anti-FLAG IP, anti-Rpn13 immunoblot
Description: (§2) 293T cells (purchased from ATCC) were cultured in DMEM supplemented with 10% fetal bovine serum at 37°C in a humidified atmosphere and 5% CO2. Plasmid DNA was transfected into 293T cells using Lipofectamine2000 (Invitrogen) according to the manufacturer’s instruction. Cells were harvested by gentle centrifugation at 500g for 5 minutes at 4°C after washing with PBS, and cell pellets were resuspended in 1% Triton-TBS buffer (50 mM Tris, pH7.5, 150 mM NaCl, 1 mM EDTA and protease inhibitor cocktail) followed by rocking at 4°C for 30 minutes. The supernatant was collected following centrifugation at 16,000g for 10 minutes and incubated with antibodies at 4°C overnight. Protein G sepharose beads (Sigma) were used to pull down interacting proteins by 3-hour incubation at 4°C. After extensive washing with 1% Triton TBS buffer, SDS-PAGE loading buffer was used to elute proteins from beads for immunoblotting.
The resulting plasmid was transfected into 293T cells and the cell lysate immunoprecipitated with anti-FLAG antibody.

[6] = tested on: ubiquitinated proteins in 293T cells; assay: accumulation of ubiquitinated proteins, immunoblot of cell lysates; type: cell-based, human; conditions: 293T cells transfected with HA-ubiquitin and peptide plasmid; anti-ubiquitin immunoblot, actin loading control; Fig 6B
Description: as §2
We next tested whether over-expression of the hRpn2-derived peptide in 293T cells leads to the accumulation of ubiquitinated proteins. Lysates from cells transfected with HA-ubiquitin alone or together with either FLAG-hRpn2 (916–953) WT or F948Stop were subjected to immunoblotting with anti-ubiquitin antibody. Cells expressing F948Stop were used as a negative control, and immunoblotting with anti-actin antibody to confirm equivalent loading.

[7] = tested on: hRpn13 at the proteasome; assay: anti-hRpt3 immunoprecipitation of proteasome, immunoprobed for hRpn13 (displacement); type: cell-based, human; conditions: 293T cells over-expressing peptide; anti-hRpt3 IP, anti-hRpn13 immunoblot; Fig 6A
Description: (§3) The DNA fragment encoding amino acid 916 to 953 of hRpn2 was amplified by PCR and cloned into the bacterial expression vector pRSET and mammalian expression vector p3XFLAG-CMV7.1. Antibodies used in this study include anti-FLAG (Sigma), anti-hRpn2 (cell signaling), anti-hRpt3 (Abcam), and anti-hRpn13 (Abcam).
as §2, with “After extensive washing with 1% Triton TBS buffer, SDS-PAGE loading buffer was used to elute proteins from beads for immunoblotting.” left out
(§4) We next tested whether over-expression of the hRpn2-derived peptide depletes hRpn13 from the proteasome. For this purpose, we immunoprecipitated proteasome by anti-hRpt3 antibody and detected the presence of hRpn13 by immunoprobing with anti-hRpn13 antibody.

[8] = tested on: proteasome subunit hRpn2; assay: anti-FLAG immunoprecipitation, immunoprobed for endogenous hRpn2; type: cell-based, human; conditions: 293T cells; anti-FLAG IP; Fig 5A
Description: as §3
as §2, with “immunoblotting. […]” for “immunoblotting.”

[9] = tested on: proteasome subunit hRpt3; assay: anti-FLAG immunoprecipitation, immunoprobed for endogenous hRpt3; type: cell-based, human; conditions: 293T cells; anti-FLAG IP; Fig 5A
Description: as §3
as §2, with “immunoblotting. […]” for “immunoblotting.”

[10] = tested on: hRpn2 in the proteasome; assay: anti-hRpt3 immunoprecipitation of proteasome, immunoprobed for hRpn2; type: cell-based, human; conditions: 293T cells over-expressing peptide; anti-hRpt3 IP; Fig 6A
Description: as §3
as §2, with “After extensive washing with 1% Triton TBS buffer, SDS-PAGE loading buffer was used to elute proteins from beads for immunoblotting.” left out
as §4

[11] = biological target: T1, hRpn13 (1–150) (human, UniProt Q16186 1-150); assay: ITC; 200 μM hRpn2 (916-953) injected into 20 μM hRpn13 (1-150) in the cell; 25°C; 20 mM sodium phosphate, 50 mM NaCl, 10 mM βME, pH 6.5; one-site fit; conditions: both partners purified
T1 construct: human Rpn13/Adrm1, Pru (pleckstrin-like receptor for ubiquitin) domain, residues 1-150; also called hRpn13 Pru domain; hRpn13 Pru

[12] = biological target: T1, hRpn13 (1–150); assay: SEC + other: LC-MS; hRpn2 (916-953):hRpn13 Pru complex passed over a size exclusion column after mixing to remove excess component; molar ratio evaluated by LC-MS; conditions: both partners purified

T1 sequence (Q16186 1-150): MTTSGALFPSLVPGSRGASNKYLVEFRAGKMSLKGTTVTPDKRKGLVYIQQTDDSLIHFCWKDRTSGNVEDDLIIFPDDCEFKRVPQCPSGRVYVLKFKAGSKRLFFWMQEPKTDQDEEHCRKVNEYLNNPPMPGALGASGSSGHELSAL

Cl.N[C@@H](Cc1ccccc1)C(=O)N1C/C(=C/c2ccc(Cl)c(Cl)c2)C(=O)/C(=C\c2ccc(Cl)c(Cl)c2)C1 [RA190]
covalent attachment to Rpn13 [1]: covalently attaches to Rpn13 Cys88
effect on Rpn13 interdomain interactions [2]: abrogates Rpn13 interdomain interactions
growth of multiple myeloma and ovarian cancer xenografts [3]: restricts growth of multiple myeloma and ovarian cancer xenografts
effect on ubiquitin-mediated protein degradation [4]: inhibits ubiquitin-mediated protein degradation

F948 with arginine: FLAG-hRpn2 (916–953) variant with F948 replaced with arginine ({FLAG}-DTSEDIEELVEPVAAHGPKIEEEEQEPEPPEPREYIDD; UniProt Q99460 916-953, looked up, variant F948R)
immunoprecipitation of / interaction with endogenous hRpn13 [5]: unable to immunoprecipitate endogenous hRpn13 from 293T cells

F948Stop: FLAG-hRpn2 (916–953) variant with F948 replaced with a stop codon; negative control (DTSEDIEELVEPVAAHGPKIEEEEQEPEPPEP; not fully specified (N-terminus))
immunoprecipitation of / interaction with endogenous hRpn13 [5]: does not bind hRpn13
presence of ubiquitinated proteins in cell lysate [6]: increase was not observed
amount of hRpn13 at the proteasome [7]: does not deplete hRpn13 from proteasome

FLAG-hRpn2 (916–953) WT: hRpn2 (916–953) fragment in frame with an N-terminal FLAG tag, expressed from p3XFLAG-CMV7.1 in 293T cells ({FLAG}-DTSEDIEELVEPVAAHGPKIEEEEQEPEPPEPFEYIDD; UniProt Q99460 916-953, looked up, fragment)
immunoprecipitation of endogenous hRpn2 [8]: neither of these RP components was immunoprecipitated by the peptide
immunoprecipitation of / interaction with endogenous hRpn13 [5]: confirmed the interaction of the hRpn2-derived peptide with endogenous hRpn13 in 293T cells
presence of ubiquitinated proteins in cell lysate [6]: increase in the presence of ubiquitinated proteins
immunoprecipitation of endogenous hRpt3 [9]: neither of these RP components was immunoprecipitated by the peptide
amount of hRpn13 at the proteasome [7]: significantly reduced the amount of hRpn13 at the proteasome
assembly of hRpn2 into the proteasome [10]: not affected by expression of the hRpn2-derived peptide

B1: hRpn2 (916–953) (peptide)
chain: GPGSDTSEDIEELVEPVAAHGPKIEEEEQEPEPPEPFEYIDD
notes: amino acids that remained at the N-terminal end from the PreScission protease tag after cleavage; human Rpn2/PSMD1, proteasome PC repeat protein, residues 916-953 (the C-terminal 38 amino acids); also called hRpn2-derived peptide; 38-amino acid peptide derived from the C-terminus of hRpn2/PSMD1; source: E. coli, purified (glutathione S-sepharose, PreScission cleavage, Superdex 75); not shown: …
Kd [11]: 12 nM
stoichiometry N [12]: 1

From publication PMC4605517 (PLoS ONE, 2015)
